Consider 16 molecules from article PMC11459923, “Identification of novel and potent inhibitors of SARS-CoV-2 main protease from DNA-encoded chemical libraries” (Antimicrobial Agents and Chemotherapy, 2024).

The assay addresses SARS-CoV-2 M^pro (Severe acute respiratory syndrome coronavirus 2, UniProt P0DTD1). Kind of assay: In vitro FRET enzymatic assay (screening at 1 µM and SAR IC50). It counts as biochemical. Conditions: for inhibition at 1 µM: read-out: M^pro inhibition % (comp. conc. 1 µM).

SMILES strings stand for the structures.

As usually defined, the inhibition is how much of the control response was suppressed. As usually defined, the IC50 is the concentration needed to halve the response being measured. The low end stands for inhibition by little substance, the high end for a need for much substance.

`N#Cc1cc(C(=O)N[C@H](CC2CCC2)C(=O)N[C@H](CC(=O)N[C@H](Cc2ccncc2)C(=O)O)Cc2c[nH]c3ccccc23)ccn1` [MP1]: the inhibition at 1 µM is 97%.
`N#Cc1cc(C(=O)N[C@H](CC2CCC2)C(=O)N[C@H](CC(=O)O)Cc2c[nH]c3ccccc23)ccn1` [MP2]: the “M^pro inhibition % (comp. conc. 1 µM)” value was determined as 2.2% and the inhibition at 1 µM was around 2%.
The corresponding values for `N#Cc1cc(C(=O)N[C@H](CC2CCC2)C(=O)N[C@H](CC(=O)N[C@H](Cc2ccccc2)C(=O)O)Cc2c[nH]c3ccccc23)ccn1` [MP3] are 30.4% and around 30%.
On to `N#Cc1cc(C(=O)N[C@H](CC2CCC2)C(=O)N[C@H](CC(=O)N[C@H](Cc2ccc(Cl)cc2)C(=O)O)Cc2c[nH]c3ccccc23)ccn1` [MP4], for which the inhibition at 1 µM is around 30%.
With `N#Cc1cc(C(=O)N[C@H](CC2CCC2)C(=O)NCCC(=O)N[C@H](Cc2ccncc2)C(=O)O)ccn1` [MP5], the “M^pro inhibition % (comp. conc. 1 µM)” value turned out to be 8.1% and the inhibition at 1 µM was around 8%.
With `N#Cc1cccc(C(=O)N[C@H](CC2CCC2)C(=O)N[C@H](CC(=O)N[C@H](Cc2ccncc2)C(=O)O)Cc2c[nH]c3ccccc23)c1` [MP6], the “M^pro inhibition % (comp. conc. 1 µM)” value was determined as 17.8% and the inhibition at 1 µM is around 18%.
In the case of `O=Cc1cccc(C(=O)N[C@H](CC2CCC2)C(=O)N[C@H](CC(=O)N[C@H](Cc2ccncc2)C(=O)O)Cc2c[nH]c3ccccc23)c1` [MP7], the inhibition at 1 µM was determined as 100%.
Consider `CC(=O)c1cccc(C(=O)N[C@H](CC2CCC2)C(=O)N[C@H](CC(=O)N[C@H](Cc2ccncc2)C(=O)O)Cc2c[nH]c3ccccc23)c1` [MP8], for which the “M^pro inhibition % (comp. conc. 1 µM)” value amounted to 18.2% and the inhibition at 1 µM is around 18%.
For `CCCC[C@@H](NC(=O)c1ccnc(C#N)c1)C(=O)N[C@H](CC(=O)N[C@H](Cc1ccncc1)C(=O)O)Cc1c[nH]c2ccccc12` [MP9], the inhibition at 1 µM was 86.6%.
`N#Cc1cc(C(=O)N[C@H](Cc2ccc(Cl)cc2)C(=O)N[C@H](CC(=O)N[C@H](Cc2ccncc2)C(=O)O)Cc2c[nH]c3ccccc23)ccn1` [MP10]: the inhibition at 1 µM turned out to be 95.7%. Besides, where the note is “IC50 ± SEM”, the IC50 is 71 ± 7 nM.
For the molecule `N#Cc1cc(C(=O)N[C@H](Cc2ccc(Cl)c(Cl)c2)C(=O)N[C@H](CC(=O)N[C@H](Cc2ccncc2)C(=O)O)Cc2c[nH]c3ccccc23)ccn1` [MP11], the inhibition at 1 µM was 90.7%. This molecule also yielded an IC50 (IC50 ± SEM) of 69 ± 4 nM.
For the molecule `N#Cc1cc(C(=O)N[C@H](CC2CCC2)C(=O)N[C@H](CC(=O)N[C@H](Cc2ccncc2)C(=O)NCc2ccccc2)Cc2c[nH]c3ccccc23)ccn1` [MP12], the inhibition at 1 µM is 96.5%.
Regarding `N#Cc1cc(C(=O)N[C@H](CC2CCC2)C(=O)N[C@H](CC(=O)N[C@H](Cc2ccncc2)C(=O)NCCN2CCOCC2)Cc2c[nH]c3ccccc23)ccn1` [MP13], the inhibition at 1 µM came out at 94.2%. Where the note is “IC50 ± SEM”, this molecule gave an IC50 of 47 ± 6 nM.
For the molecule `N#Cc1cc(C(=O)N[C@H](CC2CCC2)C(=O)N[C@H](CC(=O)N[C@H](Cc2ccncc2)C(=O)NCc2ccccn2)Cc2c[nH]c3ccccc23)ccn1` [MP14], the inhibition at 1 µM was 98.2%. The molecule further came in with an IC50 (IC50 ± SEM) of 45 ± 9 nM.
Turning to `N#Cc1cc(C(=O)N[C@H](CC2CCC2)C(=O)N[C@H](CC(=O)N[C@H](Cc2ccncc2)C(=O)NCc2cccc(Cl)c2)Cc2c[nH]c3ccccc23)ccn1` [MP15], the inhibition at 1 µM came out at 66.8%.
For the molecule `N#Cc1cc(C(=O)N[C@H](CC2CCC2)C(=O)N[C@H](CC(=O)N[C@H](Cc2ccncc2)C(=O)NCCc2c[nH]c3ccccc23)Cc2c[nH]c3ccccc23)ccn1` [MP16], the inhibition at 1 µM turned out to be 94.7%. Further, the IC50 (IC50 M^pro) was determined as 47 nM. The same molecule showed an IC50 (IC50 ± SEM) of 33 ± 3 nM.
